Reference: patent publication US12098139B2, “Chemokine receptor modulators and uses thereof” (RAPT Therapeutics, Inc., priority 2018, dated 2024)
Read-outs that look alike come from different tables or passages of the source.

Biological target: T1, hCCR4 (Chem5-hCCR4 cells) (Homo sapiens, UniProt P51679)
T1 sequence (P51679 1-360): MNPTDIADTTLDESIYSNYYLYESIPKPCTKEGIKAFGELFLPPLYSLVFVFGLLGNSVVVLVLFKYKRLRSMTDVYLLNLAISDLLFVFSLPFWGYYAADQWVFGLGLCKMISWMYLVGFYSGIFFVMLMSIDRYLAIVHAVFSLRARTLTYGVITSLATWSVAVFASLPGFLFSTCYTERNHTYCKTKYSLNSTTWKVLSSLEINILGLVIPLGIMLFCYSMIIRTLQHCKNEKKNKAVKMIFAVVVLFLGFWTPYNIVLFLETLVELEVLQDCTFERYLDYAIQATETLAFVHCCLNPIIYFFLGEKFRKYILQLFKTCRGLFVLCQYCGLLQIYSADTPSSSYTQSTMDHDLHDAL
Test: Calcium flux assay (CCL22-stimulated, FLIPR Calcium 6 dye)
Assay type: cell-based
Conditions: read-out: Potency (IC50)
Description: Calcium Flux Assay. Compounds were evaluated in a calcium flux assay substantially performed as follows. Chem5-hCCR4 cells (EMD Millipore, Hayward, CA; HTS009C) were cultured under standard conditions and frozen in aliquots of 10×10^6 cells/mL. The day prior to compound testing, a vial was rapidly thawed and pipetted into 20 mL media (DMEM+10% FBS+1% Pen-Strep+1% L-glutamine). Cells were harvested by centrifugation and re-suspended in fresh culture medium. 25 μL of cell suspension was seeded into 384-well plates (Corning, Tewksbury, MA; CellBind with black wall/clear bottom). The plates were centrifuged at 300 g for 10 seconds and incubated overnight at 37° C. and 5% CO2. The day of compound testing, media was removed from the plates and 25 μL serum free media was added to each well. Plates were returned to the incubator for 2 h. 25 μL assay buffer (Hank's balanced salt solution+20 mM HEPES pH 7.4) containing FLIPR Calcium 6 dye (Molecular Devices, Sunnyvale, CA; #R8191) and probenecid (2.5 mM) was added to each well and incubated at 37° C. and 5% CO2 for 2 h. Compounds in DMSO were added to the plates using an HP D300e digital dispenser, and all wells were normalized to contain 0.25 μL (0.5%) DMSO. Plates were incubated for 1 hour at 37° C. and 5% CO2. CCL22 (Peprotech; Rockyhill, NJ) was diluted in assay buffer containing 0.1% BSA to 7.5 nM (corresponding to 5×EC80 of 1.5 nM).
Assay plates and working solution of CCL22 were transferred to the FlexStation plate reader (Molecular Devices) at 37° C. for 5 min of equilibration. Fluorescence recordings at 485 excitation/525 emission were performed at 2.5 second intervals. At t=16 seconds, 12.5 μL of CCL22 solution was added to each well and reads continued for 30 seconds at 2.5 second intervals. The minimum fluorescence (Fmin) was calculated by averaging the reads prior to ligand addition and the change in fluorescence (ΔF) was calculated by subtracting the Fmin from the average of the reads following ligand addition. The response ΔF/Fmin was plotted as a function of the compound concentration and the IC50 values were determined by non-linear regression analysis using a 4-parameter fit in either PRISM software (GraphPad; La Jolla, CA) or Dotmatics Browser.

| IC50 (Table 5, CCL22 1.5 nM) [nM] | IC50 (Table 3, CCL22 1.5 nM) [nM] | Compound |
| --- | --- | --- |
| < 100 |  | C[C@@H](Nc1nc(N2CC([C@H]3CCCN([C@H]4C[C@](C)(C(=O)O)C4)C3)C2)nc2ccccc12)c1ccc(Cl)cc1Cl [Example 94, 3-[(1R,3R)-3-[1-[4-[[(1R)-1-(2,4-dichlorophenyl)ethyl]amino]quinazolin-2-yl]azetidin-3-yl]-1-piperidyl]-1-methyl-cyclobutanecarboxylic acid; 2,2,2-trifluoroacetic acid] |
|  | < 100 | Cc1cnc(N2CC([C@H]3CCCN(C4CC(CO)C4)C3)C2)nc1N[C@H](C)c1ccc(Cl)cc1Cl (stereo partly drawn) [Example 18, (3-((R)-3-(1-(4-(((R)-1-(2,4-dichlorophenyl)ethyl)amino)-5-methylpyrimidin-2-yl)azetidin-3-yl)piperidin-1-yl)cyclobutyl)methanol] |
| < 100 |  | C[C@@H](Nc1nc(N2CC([C@H]3CCCN(C4CC(C)(C(=O)O)C4)C3)C2)ncc1C1CC1)c1ccc(Cl)cc1Cl (single isomer, unassigned) [Example 54] |
|  | 100 to 500 | C[C@@H](Nc1nc(N2CC([C@H]3CCCN([C@H]4C[C@](C)(C(=O)O)C4)C3)C2)ncc1F)c1ccc(Cl)cc1Cl [Example 47, (1R,3r)-3-((R)-3-(1-(4-(((R)-1-(2,4-dichlorophenyl)ethyl)amino)-5-fluoropyrimidin-2-yl)azetidin-3-yl)piperidin-1-yl)-1-methylcyclobutane-1-carboxylic acid] |
| < 100 |  | CC(Nc1nc(N2CC([C@H]3CCCN(CCO)C3)C2)ncc1Cl)c1ccc(Cl)cc1F (stereo partly drawn) [Example 63, 2-[(3R)-3-[1-[5-chloro-4-[1-(4-chloro-2-fluoro-phenyl)ethylamino]pyrimidin-2-yl]azetidin-3-yl]-1-piperidyl]ethanol; 2,2,2-trifluoroacetic acid] |
|  | < 100 | C[C@@H](Nc1nc(N2CC([C@H]3CCCN([C@H]4C[C@@H](C(=O)O)C4)C3)C2)nc2ccccc12)c1ccc(Cl)cc1Cl [Example 25, (1S,3s)-3-((R)-3-(1-(4-(((R)-1-(2,4-dichlorophenyl)ethyl)amino)quinazolin-2-yl)azetidin-3-yl)piperidin-1-yl)cyclobutane-1-carboxylic acid] |
|  | 100 to 500 | C[C@@H](Nc1nc(N2CC([C@H]3CCCN(CCO)C3)C2)nc2c1CCC2)c1ccc(Cl)cc1Cl [Example 24, 2-((R)-3-(1-(4-(((R)-1-(2,4-dichlorophenyl)ethyl)amino)-6,7-dihydro-5H-cyclopenta[d]pyrimidin-2-yl)azetidin-3-yl)piperidin-1-yl)ethan-1-ol] |
|  | < 100 | C[C@@H](Nc1nc(N2CC([C@H]3CCCN([C@H]4C[C@@H](C(=O)O)C4)C3)C2)ncc1Cl)c1ccc(Cl)cc1Cl [Example 8, (1S,3s)-3-((R)-3-(1-(5-chloro-4-(((R)-1-(2,4-dichlorophenyl)ethyl)amino)pyrimidin-2-yl)azetidin-3-yl)piperidin-1-yl)cyclobutane-1-carboxylic acid] |
|  | < 100 | C[C@@H](Nc1nc(N2CC([C@H]3CCCN(CCO)C3)C2)ncc1Br)c1ccc(Cl)cc1Cl [Example 11, 2-((R)-3-(1-(5-bromo-4-(((R)-1-(2,4-dichlorophenyl)ethyl)amino)pyrimidin-2-yl)azetidin-3-yl)piperidin-1-yl)ethan-1-ol] |
| 100 to 500 |  | C[C@@H](Nc1cc(C(F)(F)F)nc(N2CC([C@H]3CCCN([C@H]4C[C@](C)(C(=O)O)C4)C3)C2)n1)c1ccc(Cl)cc1Cl [Example 59, 3-[(1R)-3-[1-[4-[[(1R)-1-(2,4-dichlorophenyl)ethyl]amino]-6-(trifluoromethyl)pyrimidin-2-yl]azetidin-3-yl]-1-piperidyl]-1-methyl-cyclobutanecarboxylic acid] |
| < 100 |  | C[C@@H](Nc1nc(N2CC([C@H]3CCCN(C4CC(C)(C(=O)O)C4)C3)C2)nc2[nH]ccc12)c1ccc(Cl)cc1Cl (single isomer, unassigned) [Example 75, trifluoroacetic acid] |
|  | < 100 | C[C@@H](Nc1nc(N2CC([C@H]3CCCN([C@H]4C[C@](C)(C(=O)O)C4)C3)C2)nc(C(F)(F)F)c1Cl)c1ccc(Cl)cc1Cl [Example 37, (1R,3r)-3-((R)-3-(1-(5-chloro-4-(((R)-1-(2,4-dichlorophenyl)ethyl)amino)-6-(trifluoromethyl)pyrimidin-2-yl)azetidin-3-yl)piperidin-1-yl)-1-methylcyclobutane-1-carboxylic acid] |
| < 100 |  | C[C@@H](Nc1nc(N2CC(C3CCCN(C4CC(CO)C4)C3C(=O)O)C2)ncc1Cl)c1ccc(Cl)cc1Cl (stereo partly drawn) [Example 88, 3-[1-[5-chloro-4-[[(1R)-1-(2,4-dichlorophenyl)ethyl]amino]pyrimidin-2-yl]azetidin-3-yl]-1-[3-(hydroxymethyl)cyclobutyl]piperidine-2-carboxylic acid; 2,2,2-trifluoroacetic acid] |
|  | < 100 | Cc1cnc(N2CC([C@H]3CCCN(CC(C)(C)O)C3)C2)nc1N[C@H](C)c1ccc(Cl)cc1Cl [Example 19, 1-((R)-3-(1-(4-(((R)-1-(2,4-dichlorophenyl)ethyl)amino)-5-methylpyrimidin-2-yl)azetidin-3-yl)piperidin-1-yl)-2-methylpropan-2-ol] |
|  | < 100 | C[C@@H](Nc1nc(N2CC([C@H]3CCCN([C@H]4C[C@](C)(C(=O)O)C4)C3)C2)ncc1C(C)(C)O)c1ccc(Cl)cc1Cl [Example 35, (1R,3r)-3-((R)-3-(1-(4-(((R)-1-(2,4-dichlorophenyl)ethyl)amino)-5-(2-hydroxypropan-2-yl)pyrimidin-2-yl)azetidin-3-yl)piperidin-1-yl)-1-methylcyclobutane-1-carboxylic acid] |
| < 100 |  | C[C@@H](Nc1nc(N2CC([C@H]3CCCN([C@H]4C[C@](C)(C(=O)O)C4)C3)C2)nc2ccc(F)cc12)c1ccc(Cl)cc1Cl [Example 65, 3-[(1R,3R)-3-[1-[4-[[(1R)-1-(2,4-dichlorophenyl)ethyl]amino]-6-fluoro-quinazolin-2-yl]azetidin-3-yl]-1-piperidyl]-1-methyl-cyclobutanecarboxylic acid; 2,2,2-trifluoroacetic acid] |
| < 100 |  | CC(O)c1cnc(N2CC([C@H]3CCCN([C@H]4C[C@](C)(C(=O)O)C4)C3)C2)nc1N[C@H](C)c1ccc(Cl)cc1Cl (stereo partly drawn) [Example 58, 3-[(3R)-3-[1-[4-[[(1R)-1-(2,4-dichlorophenyl)ethyl]amino]-5-(1-hydroxyethyl)pyrimidin-2-yl]azetidin-3-yl]-1-piperidyl]-1-methyl-cyclobutanecarboxylic acid; 2,2,2-trifluoroacetic acid] |
| < 100 |  | COc1cnc(N2CC([C@H]3CCCN(C4CC(C)(C(=O)O)C4)C3)C2)nc1N[C@H](C)c1ccc(Cl)cc1Cl (single isomer, unassigned) [Example 83] |
| < 100 |  | C[C@@H](Nc1nc(N2CC([C@H]3CCCN(C4CC(C)(C(=O)O)C4)C3)C2)nc(CF)c1Cl)c1ccc(Cl)cc1Cl (single isomer, unassigned) [Example 89] |
|  | 100 to 500 | C[C@@H](Nc1nc(N2CC([C@H]3CCCN(CCO)C3)C2)ncc1F)c1ccc(Cl)cc1Cl [Example 48, 2-((R)-3-(1-(4-(((R)-1-(2,4-dichlorophenyl)ethyl)amino)-5-fluoropyrimidin-2-yl)azetidin-3-yl)piperidin-1-yl)ethan-1-ol] |
|  | > 500 | C[C@@H](Nc1nc(N2CC([C@H]3CCCN(CCO)C3)C2)ncc1C(F)(F)F)c1ccc(Cl)cc1Cl [Example 15, 2-((R)-3-(1-(4-(((R)-1-(2,4-dichlorophenyl)ethyl)amino)-5-(trifluoromethyl)pyrimidin-2-yl)azetidin-3-yl)piperidin-1-yl)ethan-1-ol] |
|  | < 100 | C[C@@H](Nc1nc(N2CC([C@H]3CCCN([C@H]4C[C@](C)(C(=O)O)C4)C3)C2)ncc1C(F)(F)F)c1ccc(Cl)cc1Cl [Example 39, (1R,3r)-3-((R)-3-(1-(4-(((R)-1-(2,4-dichlorophenyl)ethyl)amino)-5-(trifluoromethyl)pyrimidin-2-yl)azetidin-3-yl)piperidin-1-yl)-1-methylcyclobutane-1-carboxylic acid] |
